Results: patent US12410171B2, “Tropomyosin receptor kinase (TRK) degradation compounds and methods of use” (Cullgen (Shanghai), Inc., priority 2020, dated 2025)

Biological target: T1, TPM3-TRKA fusion protein (Homo sapiens, UniProt P04629)
T1 construct: The resulted chimeric proteins always retain the kinase domain of TRK proteins; TPM3 (fusion partner, N-terminal part of tropomyosin alpha-3, P06753); endogenous in cells; host or cells: KM12 colon cancer cells; the other entry of the earlier key: TPM3 (P06753, Tropomyosin alpha-3 chain)
Assay: TPM3-TRKA fusion protein levels in KM12 cells (Western blot)
Format: cell-based
Conditions: 16 h; TPM3-TRKA degradation in KM12 cells at 10 nM compound, category of percentage degradation; read-out: Degradation (at 10 nM)
Method: KM12 cells were treated with DMSO or indicated compounds at 100 nM for 16 hours.
KM12 cells were treated with DMSO or indicated compounds at 0. 1 nM, 1 nM or 10 nM for 16 hours.
KM12 cells were treated with DMSO or indicated compounds at various concentrations for 16 hours.
KM12 cells were treated with DMSO or indicated compounds at various concentrations for 4 hours.
KM12 cells (a cancer model comprising a colon cancer cell line) were treated with DMSO or indicated compounds at various concentrations for 4 hours.
KM12 cells were treated with heterobifunctional compounds or their corresponding control compounds at 10 nM or 100 nM for 16 hours.
KM12 cells were treated with heterobifunctional compounds or their corresponding control compounds at 0.4-30 nM for 8-16 hours. […] Cells were authenticated using the short tandem repeat (STR) assays. […] Stable cell lines were established by lentivirus transduction, selected and maintained in medium containing 1 μg/mL puromycin (Beyotime Biotechnology).
Cultured cells were washed with cold PBS once and lysed in cold RIPA buffer supplemented with protease inhibitors and phosphatase inhibitors (Beyotime Biotechnology). The solutions were then incubated at 4° C. for 30 minutes with gentle agitation to fully lyse cells. For tumor tissues, tumors were cut into small pieces, milled with cold RIPA buffer using a mechanical homogenizer and lysed for 1 hour at 4° C. Cell lysates were centrifuged at 13,000 rpm for 10 minutes at 4° C. and pellets were discarded. Total protein concentrations in the lysates were determined by BCA assays (Beyotime Biotechnology). Cell lysates were mixed with Laemmli loading buffer to 1× and heated at 99° C. for 5 min. Proteins were resolved on SDS-PAGE and visualized by chemiluminescence. Images were taken by a ChemiDoc MP Imaging system (Bio-Rad). Protein bands were quantitated using the software provided by Bio-Rad.

T1 sequence (P04629 with tags, fused parts or gaps): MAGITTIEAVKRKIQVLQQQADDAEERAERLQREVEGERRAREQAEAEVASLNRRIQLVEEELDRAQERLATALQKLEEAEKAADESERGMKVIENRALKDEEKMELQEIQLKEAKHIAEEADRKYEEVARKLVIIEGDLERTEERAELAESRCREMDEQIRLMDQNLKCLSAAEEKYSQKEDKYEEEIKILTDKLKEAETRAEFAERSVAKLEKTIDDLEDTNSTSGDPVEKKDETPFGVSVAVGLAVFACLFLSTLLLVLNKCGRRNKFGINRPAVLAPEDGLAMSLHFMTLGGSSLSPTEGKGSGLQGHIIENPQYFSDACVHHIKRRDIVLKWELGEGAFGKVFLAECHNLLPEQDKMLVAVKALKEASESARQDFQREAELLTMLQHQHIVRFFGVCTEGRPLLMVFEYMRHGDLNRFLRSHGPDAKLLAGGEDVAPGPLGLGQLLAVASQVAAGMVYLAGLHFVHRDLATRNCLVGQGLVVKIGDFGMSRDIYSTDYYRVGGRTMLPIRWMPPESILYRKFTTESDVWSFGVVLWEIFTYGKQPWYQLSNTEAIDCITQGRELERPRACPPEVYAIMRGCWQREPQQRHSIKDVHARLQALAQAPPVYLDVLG

Q: `Cc1ncsc1-c1ccc(CNC(=O)[C@@H]2C[C@@H](O)CN2C(=O)[C@@H](NC(=O)CCOCCC(=O)N2CCN(c3ccc(C(=O)Nc4n[nH]c5ccc(Cc6cc(F)cc(F)c6)cc45)c(NC4CCOCC4)c3)CC2)C(C)(C)C)cc1` [CPD-048, (28,4R)-1-((S)-2-(3-(3-(4-(4-((5-(3,5-Difluorobenzyl)-1H-indazol-3-yl)carbamoyl)-3-((tetrahydro-2H-pyran-4-yl)amino)phenyl)piperazin-1-yl)-3-oxopropoxy)propanamido)-3,3-dimethylbutanoyl)-4-hydroxy-N-(4-(4-methylthiazol-5-yl)benzyl)pyrrolidine-2-carboxamide] was tested. Which percent degradation of TPM3-TRKA protein at 0.01 µM did it give?
A: Its percent degradation of TPM3-TRKA protein at 0.01 µM is under 50%.

Q: Which percent degradation of TPM3-TRKA protein at 0.01 µM does the source give for `O=C1CCC(N2C(=O)c3cccc(NCCCCCCC(=O)N4CCN(c5ccc(C(=O)Nc6n[nH]c7ccc(Cc8cc(F)cc(F)c8)cc67)c(NC6CCOCC6)c5)CC4)c3C2=O)C(=O)N1` (stereo not drawn) [CPD-049, N—(S-(3,5-Difluorobenzyl)-1H-indazol-3-yl)-4-(4-(7-((2-(2,6-dioxopiperidin-3-yl)-1,3-dioxoisoindolin-4-yl)amino)heptanoyl)piperazin-1-yl)-2-((tetrahydro-2H-pyran-4-yl)amino)benzamide] here?
A: Its percent degradation of TPM3-TRKA protein at 0.01 µM is over 80%.

Q: `O=C1CCC(N2C(=O)c3cccc(NCCCCC(=O)N4CCN(c5ccc(C(=O)Nc6n[nH]c7ccc(Cc8cc(F)cc(F)c8)cc67)c(NC6CCOCC6)c5)CC4)c3C2=O)C(=O)N1` (stereo not shown) [CPD-050, N-(5-(3,5-Difluorobenzyl)-1H-indazol-3-yl)-4-(4-(5-((2-(2,6-dioxopiperidin-3-yl)-1,3-dioxoisoindolin-4-yl)amino)pentanoyl)piperazin-1-yl)-2-((tetrahydro-2H-pyran-4-yl)amino)benzamide] was tested. Which percent degradation of TPM3-TRKA protein at 0.01 µM did it give?
A: Its percent degradation of TPM3-TRKA protein at 0.01 µM is over 80%.

Q: For `O=C1CCC(N2C(=O)c3cccc(NCCC(=O)N4CCN(c5ccc(C(=O)Nc6n[nH]c7ccc(Cc8cc(F)cc(F)c8)cc67)c(NC6CCOCC6)c5)CC4)c3C2=O)C(=O)N1` (stereo not shown) [CPD-051, N-(5-(3,5-Difluorobenzyl)-1H-indazol-3-yl)-4-(4-(3-((2-(2,6-dioxopiperidin-3-yl)-1,3-dioxoisoindolin-4-yl)amino)propanoyl)piperazin-1-yl)-2-((tetrahydro-2H-pyran-4-yl)amino)benzamide], which percent degradation of TPM3-TRKA protein at 0.01 µM is on record?
A: Its percent degradation of TPM3-TRKA protein at 0.01 µM is over 80%.

Q: How did the percent degradation of TPM3-TRKA protein at 0.01 µM turn out when `O=C1CCC(N2C(=O)c3cccc(NCCCCCCCC(=O)N4CCN(c5ccc(C(=O)Nc6n[nH]c7ccc(Cc8cc(F)cc(F)c8)cc67)c(NC6CCOCC6)c5)CC4)c3C2=O)C(=O)N1` (stereo not shown) [CPD-052, N-(5-(3,5-Difluorobenzyl)-1H-indazol-3-yl)-4-(4-(8-((2-(2,6-dioxopiperidin-3-yl)-1,3-dioxoisoindolin-4-yl)amino)octanoyl)piperazin-1-yl)-2-((tetrahydro-2H-pyran-4-yl)amino)benzamide] was run?
A: Its percent degradation of TPM3-TRKA protein at 0.01 µM is over 80%.

Q: `O=C1CCC(N2C(=O)c3cccc(NCCOCCOCCOCCOCCOCCC(=O)N4CCN(c5ccc(C(=O)Nc6n[nH]c7ccc(Cc8cc(F)cc(F)c8)cc67)c(NC6CCOCC6)c5)CC4)c3C2=O)C(=O)N1` (stereo not shown) [CPD-054, N-(5-(3,5-Difluorobenzyl)-1H-indazol-3-yl)-4-(4-(1-((2-(2,6-dioxopiperidin-3-yl)-1,3-dioxoisoindolin-4-yl)amino)-3,6,9,12, 15-pentaoxaoctadecan-18-oyl)piperazin-1-yl)-2-((tetrahydro-2H-pyran-4-yl)amino)benzamide] was tested. Which percent degradation of TPM3-TRKA protein at 0.01 µM did it give?
A: The percent degradation of TPM3-TRKA protein at 0.01 µM was over 80%.

Q: With `O=C1CCC(N2C(=O)c3cccc(NCC(=O)N4CCN(c5ccc(C(=O)Nc6n[nH]c7ccc(Cc8cc(F)cc(F)c8)cc67)c(NC6CCOCC6)c5)CC4)c3C2=O)C(=O)N1` (stereo not shown) [CPD-055, N-(5-(3,5-Difluorobenzyl)-1HI-indazol-3-yl)-4-(4-((2-(2,6-dioxopiperidin-3-yl)-1,3-dioxoisoindolin-4-yl)glycyl)piperazin-1-yl)-2-((tetrahydro-2H-pyran-4-yl)amino)benzamide] as the compound, how does the percent degradation of TPM3-TRKA protein at 0.01 µM read?
A: Its percent degradation of TPM3-TRKA protein at 0.01 µM is over 80%.

Q: With `O=C1CCC(N2C(=O)c3cccc(NCCCCCC(=O)N4CCN(c5ccc(C(=O)Nc6n[nH]c7ccc(Cc8cc(F)cc(F)c8)cc67)c(NC6CCOCC6)c5)CC4)c3C2=O)C(=O)N1` (stereo not shown) [CPD-056, N-(5-(3,5-Difluorobenzyl)-1H-indazol-3-yl)-4-(4-(6-((2-(2,6-dioxopiperidin-3-yl)-1,3-dioxoisoindolin-4-yl)amino)hexanoyl)piperazin-1-yl)-2-((tetrahydro-2H-pyran-4-yl)amino)benzamide] as the compound, how does the percent degradation of TPM3-TRKA protein at 0.01 µM read?
A: The percent degradation of TPM3-TRKA protein at 0.01 µM was over 80%.

Q: `Cc1ncsc1-c1ccc(CNC(=O)[C@@H]2C[C@@H](O)CN2C(=O)[C@@H](NC(=O)COCCOCCOCC(=O)N2CCN(c3ccc(C(=O)Nc4n[nH]c5ccc(Cc6cc(F)cc(F)c6)cc45)c(NC4CCOCC4)c3)CC2)C(C)(C)C)cc1` [CPD-058, (25,4R)-1-((S)-2-(tert-butyl)-14-(4-(4-((5-(3,5-Difluorobenzyl)-1H-indazol-3-yl)carbamoyl)-3-((tetrahydro-2H-pyran-4-yl)amino)phenyl)piperazin-1-yl)-4,14-dioxo-6,9,12-trioxa-3-azatetradecanoyl)-4-hydroxy-N-(4-(4-methylthiazol-5-yl)benzyl)pyrrolidine-2-carboxamide] was tested. Which percent degradation of TPM3-TRKA protein at 0.01 µM did it give?
A: The percent degradation of TPM3-TRKA protein at 0.01 µM was under 50%.

Q: How did the percent degradation of TPM3-TRKA protein at 0.01 µM turn out when `O=C(CN1CCN(c2cccc(-c3cnc4ccc(N5CCC[C@@H]5c5cccc(F)c5)nn34)n2)CC1)NCCOCCOCCOCCNc1cccc2c1C(=O)N(C1CCC(=O)NC1=O)C2=O` (stereo partly drawn) [CPD-059, N-(2-(2-(2-(2-((2-(2,6-Dioxopiperidin-3-yl)-1,3-dioxoisoindolin-4-yl)amino)ethoxy)ethoxy)ethoxy)ethyl)-2-(4-(6-(6-((R)-2-(3-fluorophenyl)pyrrolidin-1-yl)imidazo[1,2-b]pyridazin-3-yl)pyridin-2-yl)piperazin-1-yl)acetamide] was run?
A: The percent degradation of TPM3-TRKA protein at 0.01 µM was over 80%.

Q: Which percent degradation of TPM3-TRKA protein at 0.01 µM does the source give for `O=C(CN1CCN(c2cccc(-c3cnc4ccc(N5CCC[C@@H]5c5cccc(F)c5)nn34)n2)CC1)NCCNc1cccc2c1C(=O)N(C1CCC(=O)NC1=O)C2=O` (stereo partly drawn) [CPD-060, N-(2-((2˜ (2,6-Dioxopiperidin-3-yl)-1,3-dioxoisoindolin-4-yl)amino)ethyl)-2-(4-(6-(6-((R)-2-(3-fluorophenyl)pyrrolidin-1-yl)imidazo[1,2-b]pyridazin-3-yl)pyridin-2-yl)piperazin-1-yl)acetamide] here?
A: Its percent degradation of TPM3-TRKA protein at 0.01 µM is over 80%.

Q: With `Cc1ncsc1-c1ccc(CNC(=O)[C@@H]2C[C@@H](O)CN2C(=O)[C@@H](NC(=O)CCCCCCCNC(=O)CN2CCN(c3ccc(C(=O)Nc4n[nH]c5ccc(Cc6cc(F)cc(F)c6)cc45)c(NC4CCOCC4)c3)CC2)C(C)(C)C)cc1` [CPD-061, (2S,4R)-1-((S)-2-(8-(2-(4-(4-((5-(3,5-Difluorobenzyl)-1H-indazol-3-yl)carbamoyl)-3-((tetrahydro-2H-pyran-4-yl)amino)phenyl)piperazin-1-yl)acetamido)octanamido)-3,3-dimethylbutanoyl)-4-hydroxy-N-(4-(4-methylthiazol-5-yl)benzyl)pyrrolidine-2-carboxamide] as the compound, how does the percent degradation of TPM3-TRKA protein at 0.01 µM read?
A: The percent degradation of TPM3-TRKA protein at 0.01 µM was under 50%.

Q: `O=C(CN1CCN(c2ccc(C(=O)Nc3n[nH]c4ccc(Cc5cc(F)cc(F)c5)cc34)c(NC3CCOCC3)c2)CC1)NCCNc1cccc2c1C(=O)N(C1CCC(=O)NC1=O)C2=O` (stereo not shown) [CPD-062, N-(5-(3,5-Difluorobenzyl)-1H-indazol-3-yl)-4-(4-(2-((2-((2-(2,6-dioxopiperidin-3-yl)-1,3-dioxoisoindolin-4-yl)amino)ethyl)amino)-2-oxoethyl)piperazin-1-yl)-2-((tetrahydro-2H-pyran-4-yl)amino)benzamide] was tested. Which percent degradation of TPM3-TRKA protein at 0.01 µM did it give?
A: The percent degradation of TPM3-TRKA protein at 0.01 µM was over 80%.

Q: With `O=C(CN1CCN(c2ccc(C(=O)Nc3n[nH]c4ccc(Cc5cc(F)cc(F)c5)cc34)c(NC3CCOCC3)c2)CC1)NCCOCCOCCOCCNc1cccc2c1C(=O)N(C1CCC(=O)NC1=O)C2=O` (stereo not drawn) [CPD-064, N—(S-(3,5-Difluorobenzyl)-1H-indazol-3-yl)-4-(4-(14-((2-(2,6-dioxopiperidin-3-yl)-1,3-dioxoisoindolin-4-yl)amino)-2-oxo-6,9,12-trioxa-3-azatetradecyl)piperazin-1-yl)-2-((tetrahydro-2H-pyran-4-yl)amino)benzamide] as the compound, how does the percent degradation of TPM3-TRKA protein at 0.01 µM read?
A: The percent degradation of TPM3-TRKA protein at 0.01 µM was over 80%.

Q: With `O=C(CN1CCN(c2ccc(C(=O)Nc3n[nH]c4ccc(Cc5cc(F)cc(F)c5)cc34)c(NC3CCOCC3)c2)CC1)NCCOCCOCCOCCOCCOCCNc1cccc2c1C(=O)N(C1CCC(=O)NC1=O)C2=O` (stereo not shown) [CPD-065, N-(5-(3,5-Difluorobenzyl)-1H-indazol-3-yl)-4-(4-(20-((2-(2,6-dioxopiperidin-3-yl)-1,3-dioxoisoindolin-4-yl)amino)-2-oxo-6,9,12,15,18-pentaoxa-3-azaicosyl)piperazin-1-yl)-2-((tetrahydro-2H-pyran-4-yl)amino)benzamide] as the compound, how does the percent degradation of TPM3-TRKA protein at 0.01 µM read?
A: The percent degradation of TPM3-TRKA protein at 0.01 µM was over 80%.

Same assay, conditions: KM12 cells, 100 nM, indicated incubation time, Western blot (FIG. 2)

Q: With `O=C(CN1CCN(c2cccc(-c3cnc4ccc(N5CCC[C@@H]5c5cccc(F)c5)nn34)n2)CC1)NCCNc1cccc2c1C(=O)N(C1CCC(=O)NC1=O)C2=O` (stereo partly drawn) [CPD-060, N-(2-((2˜ (2,6-Dioxopiperidin-3-yl)-1,3-dioxoisoindolin-4-yl)amino)ethyl)-2-(4-(6-(6-((R)-2-(3-fluorophenyl)pyrrolidin-1-yl)imidazo[1,2-b]pyridazin-3-yl)pyridin-2-yl)piperazin-1-yl)acetamide] as the compound, how does the TPM3-TRKA protein levels read?
A: Its TPM3-TRKA protein levels is “rapidly reduced TPM3-TRKA protein levels”.
